# Data taken from BindingDB's records for patent US10538528 (Taiho Pahrmaceutical Co., Ltd., 2020).
# Target: RAC-alpha serine/threonine-protein kinase (Homo sapiens, UniProt P31749)
# Assay: Kinase Activity Assay
# Procedure: Akt1 was prepared and assays of inhibitory activity of the compound according to the present invention against Akt1 kinase activity in vitro were conducted according to the method described in Biochem. J., vol. 385, pp. 399-408, 2005 and Cancer Res., vol. 68, pp. 2366-2374, 2008. In the preparation of Akt1 protein, human Akt1 tagged with the middle T antigen was expressed in an insect cell Sf9, Akt1 was prepared through affinity purification and activation by PDK1, and the resultant was stored at −80° C. until the inhibition assays of the compounds. In the inhibition assay of the compounds, Akt1 and the compound according to the present invention were subjected to pre-incubation at 25° C. for 120 minutes in a reaction buffer (15 mM Tris-HCl, pH 7.5, 0.01% Tween-20, 2 mM DTT). Subsequently, biotinylated Crosstide (biotin-[…], Millipore), MgCl2, and ATP were added as substrates at the final concentration of 500 nM, 10 mM, and 150 μM, respectively, and the reaction was allowed to proceed at 25° C. for 60 minutes. […] In the end, the fluorescence levels irradiated with an excitation light of 337 nm were assayed at two different wavelength levels (i.e., 620 nm and 665 nm) using PI-HERAstar FS (BMG LABTECH) or PHERAstar (BMG LABTECH).
# Sequence of RAC-alpha serine/threonine-protein kinase (P31749 whole entry): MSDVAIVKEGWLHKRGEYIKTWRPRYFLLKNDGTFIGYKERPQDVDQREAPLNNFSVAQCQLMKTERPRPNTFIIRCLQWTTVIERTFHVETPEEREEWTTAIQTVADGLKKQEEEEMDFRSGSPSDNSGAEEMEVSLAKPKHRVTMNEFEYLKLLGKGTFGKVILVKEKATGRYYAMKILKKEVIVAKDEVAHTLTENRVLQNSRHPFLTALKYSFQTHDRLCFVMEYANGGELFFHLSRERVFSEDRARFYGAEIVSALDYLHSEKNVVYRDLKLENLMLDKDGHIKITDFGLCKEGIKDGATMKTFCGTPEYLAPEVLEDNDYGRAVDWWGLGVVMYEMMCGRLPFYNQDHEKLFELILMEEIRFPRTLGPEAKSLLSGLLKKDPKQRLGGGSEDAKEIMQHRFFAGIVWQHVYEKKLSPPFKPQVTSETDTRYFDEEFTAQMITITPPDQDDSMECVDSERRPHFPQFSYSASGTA
structure (smiles),measurement,value
"CN(C)CCn1cc(-c2ccc(F)c(C(F)(F)F)c2)nc1C1CCN(c2ncnc3c2C(C)(C)C(=O)N3)CC1 [US10538528, Compound A]",IC50,0.0522 µM
